Data from patent US20100055047A1, “Methods for treating bronchial premalignancy and lung cancer” (priority 2008, published 2010).
Values after ≈ are worked out from the molar mass of the structure shown.

Legend:
[1] = Aerodynamic size of aerosol droplets (7-Stage Cascade Impactor); assay type: physicochemical; settings: PARI compressor, LC star nebulizer, airflow 5 L/min
Description: Aerosol equipment. A PARI personal compressor and a LC star nebulizer were used in this study. The pressure should be 20-28 psi, and the aerosol generated rate should be 0.3±0.03 ml/min. Other clinically used aerosol equipment with similar functions can be used as well.
The aerodynamic diameters of aerosol droplets of 5-azacytidine were determined with extrusion-precipitation method using a 7-Stage Cascade Impactor (In-Tox Products, Albuquerque, N. Mex.) linked to PARI's personal compressor and LC star nebulizer system. 5-azacytidine solution (4 ml) was aerosolized under the airflow rate of 5 L/min. The condensed aerosol samples were collected at 3 different periods, from 1 to 1.5 min, from 3 to 3.5 min, and from 5 to 5.5 min. Aerodynamic size and fraction of aerosol with a particular size range were measured and calculated as per manufacturer's protocol. The data was mean±SD of the aerodynamic size based on weight (bars) and cumulative weight (line) from 3 independent experiments.

[2] = tested on: Human NSCLC cell lines H358, H460, and A549; assay: Cytotoxicity by MTT assay; assay type: cell-based; settings: 72 h, 3 days exposure, range over the cell lines, read-out: IC50 (concentration inhibiting 50 percent cell growth)
Description: Cytotoxicity of 5-azacytidine. Human NSCLC cell lines H358, H460, and A549 were exposed to different concentrations of 5-azacytidine in a 96-well plate for 3 days. The cytotoxicity was measured by MTT assay.

[3] = tested on: DAPK and E-cadherin in human NSCLC cell lines A549 and H460; assay: Demethylation function: re-expression of DAPK and E-cadherin by Western blotting; assay type: cell-based; settings: 24 hours exposure
Text: DAPK and E-cadherin are important tumor suppressor proteins.

[4] = in vivo; settings: ICR, mouse, in vivo, iv
Description: (§1) Acute toxicity. The dose limiting toxicity of intravenous 5-azacytidine or decitabine is severe myelosuppression. In order to test whether aerosol or intratracheal injection can reduce the myelotoxicity or alter the toxicity profile, a dose of 90 mg/kg, the maximum tolerated dose (MTD) for intravenous injection (IV) of 5-azacytidine, was used to treat ICR mice by intravenous injection to mimic current therapy. The same dose of intratracheal injection (IT) of 5-azacytidine was used to mimic aerosol administration (35). Complete blood count (CBC), creatinine, liver function tests, and pathological evaluation of H/E staining of lungs, kidney and liver were performed to assess for toxicity differences.

[5] = tested on: ICR mice; assay: in vivo
Description: as §1

[6] = Dose finding: lethal toxicity and MTD; assay type: in vivo, mice; settings: female, nude, mouse, in vivo, maximum dose causing 0% death, read-out: MTD (total dose)
Description: (§2) Dose finding. In order to use optimal therapeutic dose, the lethal toxicity and MTD for intratracheal injection (mimicking aerosol, IT) and intravenous injection (mimicking current most frequently used intravenous infusion and injection, IV) routes were determined in mice before the therapeutic experiment. Briefly, the nude mice (female, 6 weeks age) were inoculated with 4×10^6H460 cells intratracheally. One week later, they were randomly divided into several groups with 5 mice in each. Different groups of mice received different doses of IT 5Aza (range from 2.5 to 50 mg/kg qod×3) or IV 5Aza (range from 6.25 to 50 mg/k daily×6). The percentage of moribund mice in each group versus dose was used to simulate the dose response curves and determined the MTD. The maximum dose caused 0% death was defined as MTD. Under these experimental conditions, the MTD for both IT and IV 5Aza was 37.5 mg/kg or 112.5 mg/m^2 (total dose, FIG. 5-1). In considering the cytotoxicity results and the aerosol efficiency, 20% of IT MTD and 100% of IV MTD were used for the therapeutic studies.

[7] = tested on: nude mice inoculated with H460 cells intratracheally; assay: Dose finding: lethal toxicity and MTD; assay type: in vivo; settings: maximum dose causing 0% death
Description: as §2

[8] = tested on: orthotopic human NSCLC xenograft H460 in nude mice; assay: Antitumor efficacy, orthotopic H460 NSCLC xenograft; assay type: in vivo
Description: (§3) Antitumor efficacy. In order to evaluate the antitumor efficacy of the airway administered demethylating agent and to compare the result with systemic treatment, orthotopic human NSCLC xenograft models in nude mice were developed by inoculating the tumor cells in the respiratory airway (35,36). In the first experiment, the mice bearing lung tumors were randomly divided into 3 groups with 5 mice in each. Ten days after the H460 tumor inoculation, one group of mice were treated with intratracheal injection of 2.5 mg/kg of 5-azacytidine every other day for 3 injections, another group of mice were treated with IV injections of 6.25 mg/kg every day for 6 injections via tail vein, and the last group of mice remained untreated. […] The median survival is 50, 80 and >109 days for no treatment, IV 5Aza, and IT 5Aza group, respectively (FIG. 5-2). The similar results were obtained from another experiment using an orthotopic H358 NSCLC model. In the second experiment, the treatment schedules and doses were the same as the first experiment. The median survival is 60, 73, and 98 days for no treatment, IV 5Aza, and IT 5Aza group, respectively (FIG. 5-3). In both experiments, the differences between IT 5Aza and IV 5Aza are statistically significant (p<0.01).

[9] = tested on: orthotopic H358 NSCLC model in nude mice; assay: Antitumor efficacy, orthotopic H358 NSCLC xenograft; assay type: in vivo
Description: as §3

[10] = tested on: lung cancer patients; settings: intravenous or subcutaneous, not aerosol; one of the largest studies; transient; cited from earlier work
[11] = IT 2.5 mg/kg every other day for 3 injections
[12] = IV 6.25 mg/kg every day for 6 injections

With Nc1ncn([C@@H]2O[C@H](CO)[C@@H](O)[C@H]2O)c(=O)n1 [5-azacytidine] the “fraction of aerosol droplets measured between 0.2~3 μm in diameter” value [1] was “about 97 % (weight)”, the IC50 [2] was 4 to 14 µg/mL (≈ 16.4 to 57.3 µM) and the “expressions of DAPK and E-cadherin” value [3] was “significantly enhanced”. For the same molecule, the MTD [4] was 90 mg/kg, the “highest white blood cell (WBC) reduction” value ([5]; ICR, mouse, in vivo, iv, 90 mg/kg, 4 day) was 69±8.3% and the lung toxicity ([5]; IT, 90 mg/kg) was “reversible lung toxicity that peaked on day 7, reduced on day 14”. For the same molecule, the “highest white blood cell (WBC) reduction” value ([5]; IT, 90 mg/kg, day 7) was 11±1.0%, the “Toxicity grade of lungs” value ([5]; IT, Day 7) was 1-2 and the “hepatic or renal toxicities” value ([5]; mouse, in vivo, 90 mg/kg) was “no hepatic or renal toxicities”. For the same molecule, the “hepatic or renal toxicities” value ([5]; mouse, in vivo, iv, 90 mg/kg) was “no hepatic or renal toxicities”, the MTD ([6]; other: intratracheal injection, IT, qod×3) was 37.5 mg/kg and the MTD at 6 days ([6]; IV, daily×6) was 37.5 mg/kg. For the same molecule, the “MTD (total dose)” value ([7]; IT, qod×3) was 112.5 mg/m^2, the “MTD (total dose)” value ([7]; IV, daily×6) was 112.5 mg/m^2 and the median survival [8, 11] was over 109 days. It also gave a median survival [8, 12] of 80 days, a median survival [9, 11] of 98 days and a median survival [9, 12] of 73 days. For the same molecule, the “partial remission in lung cancer patients” value [10] was “one of 24 lung cancer patients had a partial remission”.
